≈ marks a conversion by molar mass, not a printed value. Peptide text beside a SMILES is read from it.
Legend:
C. albicans NCTC 3179 = assay type: cell-based, Candida albicans; conditions: NCTC 3179, 24 h
Description: MIC values were determined following the CLSI-approved Reference Method for Broth Dilution Antifungal Susceptibility Testing of Yeasts (approved standard M27-A3) ([32]) in RPMI 1640 medium (Sigma, Dorset, United Kingdom) at 35°C. For all filamentous fungi, the CLSI standard M38-A2 ([33]) was followed, in RPMI 1640 medium at 35°C. Cell growth of all fungi was followed by measuring the optical density at 530 nm (OD530) using the Powerwave XS plate reader (Biotek, Swindon, United Kingdom).

C. albicans = assay: Time-kill assay in culture media; assay type: cell-based, Candida albicans; conditions: C. albicans (n = 2); final concn 32 mg/liter = 32× MIC; inoculum 1 × 10^6 to 5 × 10^6 cells/ml; RPMI 1640, 30°C
Description: The tested antifungals were prepared at twice the required concentration. Then, 1 ml of the inoculum was added to 1 ml of the antifungal solution and incubated at 30°C. Every hour over the course of 8 h, 20 μl of the culture was removed and 10-fold serial dilutions were prepared (from 1 × 10^−1 to 1 × 10^−7). Then, 50 μl of each dilution was plated on SAB agar (Sigma) in triplicate. […] The colonies were counted, and the percentage killed was determined based on the reduction in the number of CFU/ml in the treated samples compared with the vehicle-treated, untreated controls.

A. fumigatus conidia = assay: Time-kill assay in culture media; assay type: cell-based, Aspergillus fumigatus; conditions: A. fumigatus conidia (n = 2), inoculum 1 × 10^5 cells/ml, antibiotic medium 3
Description: For Candida spp., the cells were grown for at least 18 to 24 h at 30°C, until visible growth was observed. The cells were then centrifuged and resuspended in sterile distilled H2O and diluted to the 0.5 McFarland standard density using 2× RPMI 1640 medium. The tested antifungals were prepared at twice the required concentration. Then, 1 ml of the inoculum was added to 1 ml of the antifungal solution and incubated at 30°C. Every hour over the course of 8 h, 20 μl of the culture was removed and 10-fold serial dilutions were prepared (from 1 × 10^−1 to 1 × 10^−7). Then, 50 μl of each dilution was plated on SAB agar (Sigma) in triplicate. The plates were incubated at 30°C until colonies were observed on the control plates with vehicle-treated fungi. The colonies were counted, and the percentage killed was determined based on the reduction in the number of CFU/ml in the treated samples compared with the vehicle-treated, untreated controls.
For A. fumigatus, a subculture was grown on a SAB agar (Sigma) slant for 72 h at 35°C until sporulation. A. fumigatus cells were harvested from the slant into 0.15 M NaCl (Fisher Scientific UK, Ltd.), and conidia were isolated by passing through an EASYStrainer cell sieve (70-μm pore; Greiner Bio-One, Gloucester, United Kingdom) The conidial suspension was diluted to 1 × 10^5 CFU/ml in 2× antibiotic medium 3 (Oxoid). For germling analysis, the conidial suspension was incubated for 8 h at 35°C prior to analysis; for conidial experiments, it was used immediately. The experiment was performed as described for Candida spp.

C. albicans AM2003-0182 [1] = assay: MIC (CLSI) of the agents used for TEM; assay type: cell-based, Candida albicans; conditions: standard CLSI methods
C. albicans AM2003-0182 [2] = assay: Transmission electron microscopy of planktonic cells; assay type: cell-based, Candida albicans; conditions: 1× MIC, 30 min exposure
Description: For the TEM analysis, an overnight culture of C. albicans AM2003-0182 was diluted to a density of 1 × 10^8 cells/ml in 2× RPMI 1640 medium, and the mixture was incubated at 35°C for 1 h. The cells were then washed three times in sterile water and once in 0.01 M sodium phosphate buffer. […] The cells were then fixed in 2.5% (vol/vol) glutaraldehyde and stored at 4°C before analysis. For TEM analysis, the cells were dehydrated in an ethanol and acetone series before being embedded in […] resin, stained with uranyl acetate/lead citrate stains to improve contrast, sectioned to a 90-nm thickness, and mounted onto copper grids for TEM analysis. TEM micrographs were acquired using a JEM-1400 Plus JEOL transmission electron microscope. Microscopy was performed in the Microscopy and Histology Core Facility at the University of Aberdeen (United Kingdom).

Compound | MIC (C. albicans NCTC 3179) | further results
N=C(N)NCCC[C@H](NC(=O)[C@H](CCCNC(=N)N)NC(=O)[C@H](CCCNC(=N)N)NC(=O)[C@H](CCCNC(=N)N)NC(=O)[C@H](CCCNC(=N)N)NC(=O)[C@H](CCCNC(=N)N)NC(=O)[C@H](CCCNC(=N)N)NC(=O)[C@H](CCCNC(=N)N)NC(=O)[C@@H](N)CCCNC(=N)N)C(=O)O | 2,048 μM | 
N=C(N)NCCC[C@H](NC(=O)[C@H](CCCNC(=N)N)NC(=O)[C@H](CCCNC(=N)N)NC(=O)[C@H](CCCNC(=N)N)NC(=O)[C@H](CCCNC(=N)N)NC(=O)[C@H](CCCNC(=N)N)NC(=O)[C@H](CCCNC(=N)N)NC(=O)[C@H](CCCNC(=N)N)NC(=O)[C@H](CCCNC(=N)N)NC(=O)[C@H](CCCNC(=N)N)NC(=O)[C@@H](N)CCCNC(=N)N)C(=O)O | 8 µM (≈ 13.9 µg/mL) | 
OC(Cn1cncn1)(Cn1cncn1)c1ccc(F)cc1F [Fluconazole] |  | Time of kill (time taken to kill 3 logs) (C. albicans): 6 h
CC[C@@H]([C@H](C)O)n1ncn(-c2ccc(N3CCN(c4ccc(OC[C@@H]5CO[C@@](Cn6cncn6)(c6ccc(F)cc6F)C5)cc4)CC3)cc2)c1=O [Posaconazole] |  | Time of kill (time taken to kill 2 logs) (A. fumigatus conidia; final concn 4 mg/liter = 16× MIC): 24 h
N=C(N)NCCC[C@H](NC(=O)[C@H](CCCNC(=N)N)NC(=O)[C@H](CCCNC(=N)N)NC(=O)[C@H](CCCNC(=N)N)NC(=O)[C@H](CCCNC(=N)N)NC(=O)[C@H](CCCNC(=N)N)NC(=O)[C@@H](N)CCCNC(=N)N)C(=O)O [RRRRRRR] | >2,048 μM | 
N=C(N)NCCC[C@H](NC(=O)[C@H](CCCNC(=N)N)NC(=O)[C@H](CCCNC(=N)N)NC(=O)[C@H](CCCNC(=N)N)NC(=O)[C@@H](N)CCCNC(=N)N)C(=O)O [RRRRR] (H-RRRRR-OH) | >2,048 μM | 
N=C(N)NCCC[C@H](NC(=O)[C@H](CCCNC(=N)N)NC(=O)[C@@H](N)CCCNC(=N)N)C(=O)O [RRR] (H-Arg-Arg-Arg-OH) | >2,048 μM | 
C[C@@H](c1ncncc1F)[C@](O)(Cn1cncn1)c1ccc(F)cc1F [Voriconazole] |  | Time of kill (time taken to kill 2 logs) (A. fumigatus conidia; final concn 2–8 mg/liter = 16× MIC): 48 h
human β-defensin 2 (GIGDPVTCLKSGAICHPVFCPRRYKQIGTCGLPGTKCCKKP; UniProt O15263 24-64, looked up) [endogenous human host defense peptide used as comparator in TEM] |  | MIC (1× MIC, final concentration used for TEM) (C. albicans AM2003-0182 [1]): 25 µg/mL; Cell destruction (lysis) seen by TEM (C. albicans AM2003-0182 [2]): not observed

Reference: PMC8284473, “Preliminary Characterization of NP339, a Novel Polyarginine Peptide with Broad Antifungal Activity” (Antimicrobial Agents and Chemotherapy, 2021)
